Measurements reported in US9709557B2, “Anthraquinone based near IR emitting compounds and uses thereof” (LIFE TECHNOLOGIES CORPORATION, priority 2008, dated 2017).

Test system: Live Jurkat cells
Experiment: DNA staining of live cells, 15 minute incubation (Example 46)
Format: cell-based, human
Settings: 2.5, 5, 10 μM, 37° C., 15 min; 488 and 633 nm lasers, 695/40
Description: Compound 9 is diluted as a 5 mM concentration in DMSO. Live Jurkat cells are suspended at 5×10^5 cells/ml in RPMI media with 10% Fetal Bovine Serum (FBS). Compound 9 was is added to each of one mL cell suspensions at concentrations 2.5 μM, 5 μM, 10 μM and then incubated at 37° C. for 15 minutes while protected from light. Cells are run through the Becton Dickinson (BD) LSRII Flow Cytometer. Forward Scatter (FS) vs Side Scatter (SS) dual parameter plot is used to gate main cell population. Fluorescence is collected using two lasers: the 488 nm excitation laser with 695/40 bandpass emission filter, and using the 633 nm excitation laser with 695/40 bandpass emission filter. Collection of 10,000 events gated on the main population of cells was performed using a flow rate of ˜200 events/second. […] A typical DNA cell cycle histogram was generated, showing G0/G1 phase, S phase, and G2/M phase, as obtained on the live cell gate, with all concentrations of the compound.

## CN(C)CCNC(=O)CNc1ccc(O)c2c1C(=O)c1c(O)ccc(N)c1C2=O [Compound 9]
  DNA content cell cycle staining: demonstrated staining for DNA content cell cycle
